Measured values reported in patent US20070123465A1, “Oligomeric peptides and their use for the treatment of hiv infections” (IPF PHARMACEUTICALS GMBH, priority 2004, published 2007).
Bridge positions count the residues as written; N and C are the ends. Square brackets hold non-standard residues; d marks the D form. Peptide text beside a SMILES is read from it. I, II: the chains in the order shown. dTic = O=C(O)[C@H]1Cc2ccccc2CN1; NMeL = CN[C@@H](CC(C)C)C(=O)O

The molecules below were run on HIV-1 NL4-3. Details: X4-tropic HIV-1 NL4-3, P4-CCR5 cells.
Type: cell-based
Excerpt: P4-CCR5 indicator cells (Charneau et al., 1994; Journal of Molecular Biology 241, 651-662) expressing the primary CD4 receptor and both major HIV-1 entry cofactors CXCR4 and CCR5, were used to evaluate whether the oligomeric peptides according to the invention are potent inhibitors of HIV-1 infection. These cells contain the β-galactosidase reporter gene under the control of the HIV-1 promoter. Thus, activation of the β-galactosidase reporter gene allows to measure the efficiency of HIV-1 infection and thus to quantitate the potency of HIV-1 inhibitors (Detheux M. et al., 2000; Journal of Experimental Medicine 192, 1501-1508; Muinch et al., 2002; Antimicrobial Agents and Chemotherapy 46, 982-990).
To perform a typical infection assay, P4-CCR5 cells (Charneau et al., 1994; Journal of Molecular Biology 241, 651-662; Charneau et al., Virology. 1994 205, 247-53) were kept in RPMI 1640 medium supplemented with 10 volume % FCS. This cell line coexpresses CD4 and both HIV-1 coreceptors CCR5 and CXCR4 and contains the β-galactosidase gene under the control of the HIV-1 promoter. Virus stocks were generated by the calcium coprecipitation method as described (Detheux et al., 3 Exp Med. 192:1501-8; 2000), and the p24 antigen levels were quantitated with an HIV p24 ELISA kit obtained through the NIH AIDS Reagent Program. Cells were seeded in flat-bottomed 96-well dishes, cultured overnight, and incubated with the different doses of peptide for 2 h before infection with virus containing 1 ng of p24 antigen in a total volume of […] of medium. After overnight incubation, cells were washed twice and cultivated in fresh culture medium without inhibitory peptide. Three days after infection the cells were lysed, and infectivity was quantitated using the Galacto-Light Plus™ chemiluminescence reporter assay kit (Tropix, Bedford, Mass.) as recommended by the manufacturer. All infections were performed in quintuplicate.
Below, the IC50 values of peptides of the invention obtained from the described infection assay are provided.

Molecule	IC50
CC[C@H](C)[C@H](NC(=O)[C@H](C)NC(=O)[C@H](CCC(=O)O)NC(=O)[C@@H](N)CC(C)C)C(=O)N1CCC[C@H]1C(=O)N[C@@H](CCSC)C(=O)N[C@@H](CSSC[C@H](NC(=O)[C@H](CCSC)NC(=O)[C@@H]1CCCN1C(=O)[C@@H](NC(=O)[C@H](C)NC(=O)[C@H](CCC(=O)O)NC(=O)[C@@H](N)CC(C)C)[C@@H](C)CC)C(=O)N[C@H](C(=O)N1CCC[C@H]1C(=O)N1CCC[C@H]1C(=O)N[C@@H](CCC(=O)O)C(=O)N[C@@H](Cc1ccccc1)C(=O)N[C@@H](CC(C)C)C(=O)N[C@@H](Cc1ccccc1)C(=O)NCC(=O)N[C@@H](CCCCN)C(=O)N1CCC[C@H]1C(=O)N[C@@H](Cc1ccccc1)C(=O)N[C@H](C(=O)N[C@@H](Cc1ccccc1)C(=O)O)C(C)C)[C@@H](C)CC)C(=O)N[C@H](C(=O)N1CCC[C@H]1C(=O)N1CCC[C@H]1C(=O)N[C@@H](CCC(=O)O)C(=O)N[C@@H](Cc1ccccc1)C(=O)N[C@@H](CC(C)C)C(=O)N[C@@H](Cc1ccccc1)C(=O)NCC(=O)N[C@@H](CCCCN)C(=O)N1CCC[C@H]1C(=O)N[C@@H](Cc1ccccc1)C(=O)N[C@H](C(=O)N[C@@H](Cc1ccccc1)C(=O)O)C(C)C)[C@@H](C)CC [VIR-577] (I: H-LEAIPMCIPPEFLFGKPFVF-OH / II: H-LEAIPMCIPPEFLFGKPFVF-OH; disulfide I:7-II:7)	3270 nM
CC[C@H](C)[C@H](NC(=O)[C@H](C)NC(=O)[C@H](CCC(=O)O)NC(=O)[C@H](CC(C)C)NC)C(=O)N1CCC[C@H]1C(=O)N[C@@H](CSSC[C@H](NC(=O)[C@@H]1CCCN1C(=O)[C@@H](NC(=O)[C@H](C)NC(=O)[C@H](CCC(=O)O)NC(=O)[C@H](CC(C)C)NC)[C@@H](C)CC)C(=O)N[C@@H](CO)C(=O)N[C@H](C(=O)N1CCC[C@H]1C(=O)N1CCC[C@H]1C(=O)N[C@@H](CCC(=O)O)C(=O)N[C@@H](Cc1ccccc1)C(=O)N[C@@H](CC(C)C)C(=O)N[C@@H](Cc1ccccc1)C(=O)NCC(=O)N[C@@H](CCCCN)C(=O)N1CCC[C@H]1C(=O)N[C@@H](Cc1ccccc1)C(=O)N[C@H](C(=O)N[C@@H](Cc1ccccc1)C(=O)O)C(C)C)[C@@H](C)CC)C(=O)N[C@@H](CO)C(=O)N[C@H](C(=O)N1CCC[C@H]1C(=O)N1CCC[C@H]1C(=O)N[C@@H](CCC(=O)O)C(=O)N[C@@H](Cc1ccccc1)C(=O)N[C@@H](CC(C)C)C(=O)N[C@@H](Cc1ccccc1)C(=O)NCC(=O)N[C@@H](CCCCN)C(=O)N1CCC[C@H]1C(=O)N[C@@H](Cc1ccccc1)C(=O)N[C@H](C(=O)N[C@@H](Cc1ccccc1)C(=O)O)C(C)C)[C@@H](C)CC [VIR-712] (I: H-[NMeL]EAIPCSIPPEFLFGKPFVF-OH / II: H-[NMeL]EAIPCSIPPEFLFGKPFVF-OH; disulfide I:6-II:6; C-terminus assumed)	195 nM
CC[C@H](C)[C@H](NC(=O)[C@H](C)NC(=O)[C@H](CCC(=O)O)NC(=O)[C@@H](N)CC(C)C)C(=O)N1CCC[C@H]1C(=O)N[C@@H](CSSC[C@H](NC(=O)[C@@H]1CCCN1C(=O)[C@@H](NC(=O)[C@H](C)NC(=O)[C@H](CCC(=O)O)NC(=O)[C@@H](N)CC(C)C)[C@@H](C)CC)C(=O)NCC(=O)N[C@H](C(=O)N1CCC[C@H]1C(=O)N1CCC[C@@H]1C(=O)N[C@@H](CCC(=O)O)C(=O)N[C@H](C(=O)N1Cc2ccccc2C[C@@H]1C(=O)N[C@@H](Cc1ccccc1)C(=O)N[C@@H](CC(N)=O)C(=O)N[C@@H](CCCCN)C(=O)N1CCC[C@H]1C(=O)N[C@@H](Cc1ccccc1)C(=O)N[C@H](C(=O)N[C@@H](Cc1ccccc1)C(=O)O)C(C)C)C(C)C)[C@@H](C)CC)C(=O)NCC(=O)N[C@H](C(=O)N1CCC[C@H]1C(=O)N1CCC[C@@H]1C(=O)N[C@@H](CCC(=O)O)C(=O)N[C@H](C(=O)N1Cc2ccccc2C[C@@H]1C(=O)N[C@@H](Cc1ccccc1)C(=O)N[C@@H](CC(N)=O)C(=O)N[C@@H](CCCCN)C(=O)N1CCC[C@H]1C(=O)N[C@@H](Cc1ccccc1)C(=O)N[C@H](C(=O)N[C@@H](Cc1ccccc1)C(=O)O)C(C)C)C(C)C)[C@@H](C)CC [VIR-706, (LEAIPCGIPpEV(D-Tic)FNKPFVF)2] (I: H-LEAIPCGIP[dP]EV[dTic]FNKPFVF-OH / II: H-LEAIPCGIP[dP]EV[dTic]FNKPFVF-OH; disulfide I:6-II:6; N-terminus and C-terminus assumed)	74 nM
CC[C@H](C)[C@H](NC(=O)[C@H](CCCCN)NC(=O)[C@H](CCC(=O)O)NC(=O)[C@@H](N)CC(C)C)C(=O)N1CCC[C@H]1C(=O)N[C@@H](CSSC[C@H](NC(=O)[C@@H]1CCCN1C(=O)[C@@H](NC(=O)[C@H](CCCCN)NC(=O)[C@H](CCC(=O)O)NC(=O)[C@@H](N)CC(C)C)[C@@H](C)CC)C(=O)N[C@@H](CO)C(=O)N[C@H](C(=O)N1CCC[C@H]1C(=O)N1CCC[C@@H]1C(=O)N[C@@H](CCC(=O)O)C(=O)N[C@H](C(=O)N[C@@H](C)C(=O)N[C@@H](Cc1ccccc1)C(=O)N[C@@H](CC(N)=O)C(=O)N[C@@H](CCCCN)C(=O)N1CCC[C@H]1C(=O)N[C@@H](Cc1ccccc1)C(=O)N[C@H](C(=O)N[C@@H](Cc1ccccc1)C(=O)O)C(C)C)C(C)C)[C@@H](C)CC)C(=O)N[C@@H](CO)C(=O)N[C@H](C(=O)N1CCC[C@H]1C(=O)N1CCC[C@@H]1C(=O)N[C@@H](CCC(=O)O)C(=O)N[C@H](C(=O)N[C@@H](C)C(=O)N[C@@H](Cc1ccccc1)C(=O)N[C@@H](CC(N)=O)C(=O)N[C@@H](CCCCN)C(=O)N1CCC[C@H]1C(=O)N[C@@H](Cc1ccccc1)C(=O)N[C@H](C(=O)N[C@@H](Cc1ccccc1)C(=O)O)C(C)C)C(C)C)[C@@H](C)CC [VIR-705, (LEKIPCSIPpEVAFNKPFVF)2] (I: H-LEKIPCSIP[dP]EVAFNKPFVF-OH / II: H-LEKIPCSIP[dP]EVAFNKPFVF-OH; disulfide I:6-II:6)	484 nM
I: H-LEAIPMSIPPEFLFGKPFVFKG-OH / II: H-LEAIPMSIPPEFLFGKPFVF (amide I:21-II:C) [VIR-574]	3080 nM
